Test results published in paper PMC9370150, “UHPLC Enantiomer Resolution for the ɑ/β-Adrenoceptor Antagonist R/S-Carvedilol and Its Major Active Metabolites on Chiralpak IB N-5” (Molecules, 2022).
Like-named read-outs stand apart in the source and are kept apart here.

Tests used:
[1] = parameters: method as in PMID 1980583; details: therapeutic dose; cited from earlier work
α1-adrenoreceptor = details: cited from earlier work
[2] = Enantiomer plasma concentrations in cardiovascular patients after oral 25 mg rac-CAR (UHPLC-UV on Chiralpak IB N-5); details: for concentration at 0.5 h / concentration at 1 h / concentration at 2 h / concentration at 4 h / concentration at 9 h / concentration at 12 h: human, plasma, po, 25 mg
Procedure: The developed method was applied to single plasma samples obtained from different patients after an oral dose administration of 25 mg rac-CAR under non-standardized conditions. Patients’ plasma was collected at different time intervals after drug administration and CAR and its metabolites were extracted according to the method in Section 4.7 after spiking with IS.
Blood samples obtained from patients were also collected in EDTA-containing tubes. Blood was kept cool and then centrifuged at 2000 g for 15 min. Following plasma separation, it was immediately transferred into clean polypropylene tubes. The samples were always kept at 2–8 °C while handling.
After collection, plasma was obtained and the samples stored frozen until analysis.

β-adrenoreceptor = details: cited from earlier work
[3] = patient 3, sampling time 2.0 hr, oral 25 mg racemic CAR
[4] = patient 4, sampling time 4.0 hr, oral 25 mg racemic CAR
[5] = patient 5, sampling time 9.0 hr, oral 25 mg racemic CAR
[6] = patient 6, sampling time 12.0 hr, oral 25 mg racemic CAR
[7] = single enantiomers, read-out: Kd, α1-antagonistic activity
[8] = single enantiomers, read-out: Kd, β-adrenoreceptor antagonistic property

Compound	concentration at 0.5 h [2]	concentration at 1 h [2]	Plasma Concentration [2, 3]	Plasma Concentration [2, 4]	Plasma Concentration [2, 5]	Plasma Concentration [2, 6]	concentration at 2 h [2]	concentration at 4 h [2]	concentration at 9 h [2]	concentration at 12 h [2]	further results
COc1ccccc1OCCNCC(O)COc1cccc2[nH]c3ccccc3c12 (centres unmarked) [CAR, Carvedilol]	41 ng/mL	98.4 ng/mL	–	–	–	–	–	–	–	–	excreted unchanged into urine [1]: 2%; fraction of dose metabolized [1]: ~98%; α1-adrenoceptor-antagonism eudismic ratio (α1-adrenoreceptor; parent CAR): approximately 1; Kd (α1-adrenoreceptor; racemate, read-out: apparent dissociation constant (Kd), α1-adrenoreceptor antagonist): 0.9 nM; plasma S/R ratios of CAR enantiomers ([2]; analyzed patient samples after 25 mg CAR racemate): ~1; Plasma concentration S/R ([2]; patient 1, sampling time 0.5 hr, oral 25 mg racemic CAR): 0.98; sum of the two enantiomers in plasma ([2]; patients investigated, 25 mg CAR racemate): ≤ 100 ng/mL; β-adrenoceptor-antagonism eudismic ratio (β-adrenoreceptor; parent CAR): approximately 100; Kd (β-adrenoreceptor; racemate, read-out: Kd, nonselective β-adrenoreceptor antagonist): 11 nM
COc1cc(O)ccc1OCCNC[C@@H](O)COc1cccc2[nH]c3ccccc3c12 [R-4′OHC]	–	–	4.51 ng/mL	4.98 ng/mL	3.54 ng/mL	1.96 ng/mL	–	–	–	–	–
COc1ccccc1OCCNC[C@@H](O)COc1cccc2[nH]c3ccccc3c12 [R-CAR]	20.7 ng/mL	48.4 ng/mL	–	–	–	–	–	–	–	–	Kd (α1-adrenoreceptor; [7]): 16 nM; β-blocking activity relative to the racemate (β-adrenoreceptor; share of the racemate's activity): approximately 1%; Kd (β-adrenoreceptor; [8]): ~45 nM
COc1ccc(O)cc1OCCNC[C@@H](O)COc1cccc2[nH]c3ccccc3c12 [R-5′OHC]	–	–	8.20 ng/mL	9.47 ng/mL	6.09 ng/mL	3.78 ng/mL	–	–	–	–	–
Oc1ccccc1OCCNC[C@H](O)COc1cccc2[nH]c3ccccc3c12 [S-DMC]	–	3.27 ng/mL	–	–	–	–	9.92 ng/mL	8.52 ng/mL	5.02 ng/mL	2.73 ng/mL	–
COc1ccccc1OCCNC[C@H](O)COc1cccc2[nH]c3ccccc3c12 [S-CAR, (-)-1-(9H-carbazol-4-yloxy)-3-[2-(2-methoxyphenoxy)ethylamino] propan-2-ol]	20.3 ng/mL	50 ng/mL	–	–	–	–	–	–	–	–	Kd (α1-adrenoreceptor; [7]): 14 nM; β-adrenoreceptor potency relative to the racemic mixture (β-adrenoreceptor; fold more potent than racemate): approximately two-fold; Kd (β-adrenoreceptor; [8]): 0.4 nM
COc1cc(O)ccc1OCCNC[C@H](O)COc1cccc2[nH]c3ccccc3c12 [S-4′OHC]	–	–	–	–	–	–	13.7 ng/mL	16.1 ng/mL	8.18 ng/mL	5.29 ng/mL	–
Oc1ccccc1OCCNC[C@@H](O)COc1cccc2[nH]c3ccccc3c12 [R-DMC]	–	–	6.06 ng/mL	4.93 ng/mL	2.82 ng/mL	1.52 ng/mL	–	–	–	–	Plasma Concentration ([2]; patient 2, sampling time 1.0 hr, oral 25 mg racemic CAR): 2.40 ng/mL
COc1ccc(O)cc1OCCNC[C@H](O)COc1cccc2[nH]c3ccccc3c12 [S-5′OHC]	–	–	–	–	–	–	11.5 ng/mL	14.1 ng/mL	8.09 ng/mL	5.28 ng/mL	–
